Assay results: patent US20220073541A1, “SILICON ION COMPLEX ORGANIZED WITH CARBOXYLIC ACID, METHOD FOR MANUFACTURING COMPLEX, AND PRODUCT USING SAME” (KOREA NEW TECHNOLOGY CO.,LTD., priority 2019, published 2022)

Assay: Metasilicate dissolution experiment (gastric acid conditions, pH 1.5)
Format: physicochemical
Description: A dissolution experiment was performed using sodium metasilicate nonahydrate (Na2SiO3.9H2O).
(2) The pH of the solution was lowered to pH 1.5 using 37% hydrochloric acid and measured again.
(1) 150 ml of water was added in a 250 ml beaker, adjusted in pH to a value of 1.5 with 37% hydrochloric acid to meet the standards for gastric acid of the human body, and combined with another water to a volume of 250 ml.
(2) 1 g of metasilicate nonahydrate (Na2SiO3.9H2O) was added to the solution of step (1).

With O.O.O.O.O.O.O.O.O.O=[Si]([O-])[O-].[Na+].[Na+] [Comparative Example 1, sodium metasilicate nonahydrate (Na2SiO3.9H2O)] the “pH of solution in pure water” value (1 g in 500 ml pure water) was 12.23 and the “behaviour of dissolved silicate after lowering pH” value (1 g in 500 ml pure water, pH lowered to 1.5 using 37% hydrochloric acid) was “gelled while agglomerating”.
In the case of O.O.O.O.O.O.O.O.O.O=[Si]([O-])[O-].[Na+].[Na+] [Comparative Example 2, metasilicate nonahydrate (Na2SiO3.9H2O)], the “dissolution of silicate added to acidic water” value (1 g added to 250 ml water at pH 1.5 (37% hydrochloric acid)) is reported as “precipitated rather than dissolved”.
